# Article PMC11522800 (Frontiers in Immunology, 2024)
# Read-outs that look alike come from different tables or passages of the source.
# Legend:
# [1] = Method: Cohort 1 received 50 mg of each dipeptide in 300 mL water. Cohort 2 received 100 mL Peptamen first, then 50 mg of each dipeptide in 150 mL water, followed by another 50 mL water. All drinks were taken within a minute. Cohort 3 received 100 mL Peptamen first, then a reduced dose of 5 mg of each dipeptide in 150 mL water, followed by another 50 mL water. All drinks were taken within a minute. Blood samples were collected after 15 min, 30 min, 45 min, 1 h, 2 h, 3 h, 4 h, 6 h, 8 h, 10 h, 14 h, 48 h and 72 h after dosing. Urine was collected and pooled at 0-4 h, 4-6 h, and 6-10 h, and was collected as spot urine at 48 h and 72 h after dosing.
# Plasma samples were thawed on ice, mixed, and 100 µL of each sample was transferred to a 1.5 mL LoBind reaction tube. Plasma samples were precipitated after adding 200 µL of acetonitrile/methanol (10:1), and incubated on ice for 15 min. Samples were centrifuged at 16,000 g for 15 min at 4 °C. 100 µL supernatant was dried under nitrogen at 40 °C. Samples were reconstituted in 100 µL 0.1% formic acid and 5 µL was applied to the LC-MS/MS instrument.
# Labelled XP dipeptides and single amino acids (P*, L*, F*) in plasma samples were quantified by LC-MS/MS using Nexera LC40 HPLC system (Shimadzu, Duisburg, Germany) coupled to an API 6500+ ™ tandem mass spectrometer (AB Sciex, Darmstadt, Germany). For chromatographic separation an ACQUITY UPLC HSS PFP Column (100 Å, 1.8 µm, 2.1 mm X 150 mm; Waters, Eschborn, Germany) protected by a SecurityGuard C18 column (4x2 mm; Phenomenex, Aschaffenburg, Germany) was used. Chromatographic separation was performed at an oven temperature of 40°C and the solvent flow rate was set to 400 µL/min. Elution was achieved by varying composition of solvent A (90% acetonitrile + methanol (6 + 1), 0.1% formic acid in H2O) and solvent B (0.1% formic acid in H2O) using following LC conditions: 0-1.4 min 0% solvent A; 1.4-10.4 min 0-50% solvent A; 10.5-12.9 min 80% solvent A; 13-15 min 0% solvent A. To decrease the introduction of debris into the MS, a valve was directed to waste at 0.1-1 min and 9.5-14.9 min.
# MS detection of labelled amino acids and XP dipeptides was performed in positive mode with curtain gas set to 40, gas 1 of 50, gas 2 of 70, temperature of 500°C and an IS of 3500. Detection was achieved using MS parameters and mass transitions listed in Supplementary Table 3 .
# LC-MS/MS-generated chromatograms were analyzed using Analyst 1.7.2 (Sciex, Darmstadt, Germany). The pharmacokinetics parameter AUC was calculated using GraphPad Prism version 8.0 (GraphPad Prism Software Inc., La Jolla, CA, USA). Partial AUCs were calculated manually using the trapezoidal rule.
# Statistical analyses were performed using SPSS Statistics Version 28 (SPSS Inc., IBM, Chicago, IL, USA). To compare the effects between cohorts in the dipeptide resorption study the one-tailed Mann-Whitney-Test was applied. To compare the effects between enzyme supplementation and controls during the proof-of-concept study the one tailed Wilcoxon matched-pairs signed rank test was applied.
# [2] = plasma of healthy volunteers after oral administration of SI-labelled XP dipeptides (with water or Peptamen); details: human (healthy volunteers), up to 72 h
# [3] = system: gastric, pancreatic, and intestinal peptidases; experiment: human gastric, pancreatic, and intestinal peptidases; details: cited from earlier work
# [4] = system: AMYNOPEP (dipeptidyl peptidase and aminopeptidase, 1:10 enzyme ratio); experiment: Tris buffer at pH 7.0 using an enzyme mixture consisting of 0.86 mg/L dipeptidyl peptidase and 8.6 mg/L aminopeptidase; details: 37°C, up to 60 minutes
# [5] = system: AMYNOPEP (dipeptidyl peptidase : aminopeptidase, 1:1 ratio); experiment: in vitro with AMYNOPEP at an enzyme ratio of 1:1
compound,measurement,setting,value
"N[C@@H](Cc1ccccc1)C(=O)O [F*, phenylalanine]",reduction in plasma AUC of labelled amino acid on dose reduction from 50 mg to 5 mg of each XP,"[1]; oral XP dipeptides taken with 100 mL Peptamen, n=3 healthy volunteers per cohort, LC-MS/MS",9.5 fold
same,SI-labelled amino acid detection in plasma after oral XP dipeptides,"[1]; oral, 50 mg each of F*P*, LP*, L*P* in water, n=3 healthy volunteers, HPLC-MS/MS",detectable
same,decrease in plasma AUC of labelled amino acid with Peptamen relative to water,"[1]; oral, 50 mg of each XP dipeptide with 100 mL Peptamen vs water, n=3 healthy volunteers per cohort, LC-MS/MS",2.1 fold
"CC(C)C[C@H](N)C(=O)O [L*, leucine]",reduction in plasma AUC of labelled amino acid on dose reduction from 50 mg to 5 mg of each XP,"[1]; human, in vivo, po",13.2 fold
"O=C(O)[C@@H]1CCCN1 [P*, proline]",reduction in plasma AUC of labelled amino acid on dose reduction from 50 mg to 5 mg of each XP,"[1]; human, in vivo, po",11.5 fold
F*P*,cleaved bond,[2],F*-P*
L*P*,cleaved bond,[2],L*-P*
LQLQPFPQPQLPYPQPQLPYPQPQLPYPQPQPF,not cleaved,[3],thought to be stable to proteolytic digestion
same,cleaved bond,[4],"L-Q, 5 min and P-Q and Q-L and P-Y and P-F, within 30 minutes and Q-L, 5 min and P-F, 5 min and P-Q, 5 min"
same,cleaved bond,[5],P-F
